Measurements as given in ChEMBL document CHEMBL3887008, “Pyrrolinone carboxamide compounds useful as endothelial lipase inhibitors” (2016).

These compounds were tested against T1, Endothelial lipase (Homo sapiens, UniProt Q9Y5X9) (assay: Enzymatic Assay: Endothelial lipase activity was measured using a fluorescent substrate, A10070, (Invitrogen, CA) doped into an artificial vesicle containing DMPG (Avanti Polar Lipids) as the excipient. Vesicles were prepared by combining 285 uL of 1 mMDMPG in a 1:1 mixture of MeOH and CHCl3 with 15 uL of 1 mM A10070 in a 1:1 mixture of MeOH and CHCl3. The mixture was dried under nitrogen and resuspended in 150 uL of 50 mM HEPES pH 8.0 buffer containing 100 mM NaCl and 0.2 mM EDTA. The sample was allowed to sit at rt for 15 min and then was sonicated 3x4 mins on ice with a Branson Sonicator using duty cycle 1. This preparation provides vesicles with a mole fraction of 0.05 for the FRET substrate.The enzymatic assay was measured using white, opaque 96-well half area plates. Each well contained 60 uL of assay buffer (50 mM HEPES pH 8.0, 50 mM NaCl and 1 mM CaCl2) and 2 ul of a DMSO solution containing compound of interest. Conditioned media obtained from HT-1080 cells, which were transformed by RAGE technology (Athersys) to overexpress endogenous EL, was added and the reaction was allowed to incubate for 20 min at 37deg; C. with gentle agitation. The reaction was started by the addition of 20 uL of a 1:4 dilution of vesicles. The final total reaction volume was 100 uL. The reaction rates were measured on a Gemini plate reader with an excitation wavelength of 488 nm and a emission of 530 nm. Readings were taken every 20 seconds for 10 min with agitation between each reading. The slope of the linear portion of the readout was used to calculate the rate of the reaction.).
T1 sequence (Q9Y5X9 whole entry): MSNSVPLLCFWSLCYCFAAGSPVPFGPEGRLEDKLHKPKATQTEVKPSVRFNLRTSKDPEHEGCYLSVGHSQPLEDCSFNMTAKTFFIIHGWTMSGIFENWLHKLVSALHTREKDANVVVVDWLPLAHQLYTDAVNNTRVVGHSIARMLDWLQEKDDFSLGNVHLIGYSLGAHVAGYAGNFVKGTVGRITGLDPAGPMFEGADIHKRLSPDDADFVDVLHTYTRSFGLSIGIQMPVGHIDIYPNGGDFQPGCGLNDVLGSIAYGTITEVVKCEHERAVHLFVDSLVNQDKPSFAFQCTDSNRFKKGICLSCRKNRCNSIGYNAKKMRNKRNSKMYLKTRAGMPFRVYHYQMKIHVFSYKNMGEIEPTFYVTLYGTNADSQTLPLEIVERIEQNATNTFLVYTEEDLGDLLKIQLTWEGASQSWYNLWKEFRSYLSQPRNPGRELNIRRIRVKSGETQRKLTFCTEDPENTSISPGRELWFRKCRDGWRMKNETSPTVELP
Format: cell-based

IC50 [nM] | SMILES
27 | CN1CC(C(=O)NCc2ccc(Oc3ccc(Cl)c(Cl)c3)cc2)=C(O)C1=O
27.1 | CC(=O)Nc1ccc(-c2cccc([C@@H](C)NC(=O)C3=C(O)C(=O)N(c4ccc(F)cc4F)C3)c2)cc1
43 | CN1CC(C(=O)NCc2ccc(Oc3ccccc3)cc2)=C(O)C1=O
22.1 | CN1CC(C(=O)NCCCOc2cccc(Oc3ccccc3)c2)=C(O)C1=O
